These are literature values, as cited in the CATMoS acute toxicity set (Mansouri et al. 2021).

The nature of this series: rat acute oral toxicity. To be noted: in vivo.
In the case of `CC=CC(=O)OCC`, the LD50 is 3000 mg/kg.

On to `CNC(=O)Oc1cccc2c1OC(C)(C)C2O` (stereo unspecified), for which the 50% lethal dose (LD50) is 18 mg/kg.

For the molecule `CN=C(O)O/N=C1/SCOC1(C)C`, the LD50 is 2 mg/kg.

Take `O=C1CN(N=Cc2ccc(-c3ccc([N+](=O)[O-])cc3)o2)C(=O)N1`: the LD50 was 7430 mg/kg.

On to `CC(C)(C)c1ccccc1`, for which the 50% lethal dose (LD50) is 3040 mg/kg.

As to `CCCCCCCCN`, the LD50 was 315 mg/kg.

Take `COc1cc(C(=O)Oc2c(CCC(C)=O)c(=O)n(-c3ccccc3)n2-c2ccccc2)cc(OC)c1OC`: the LD50 is 3000 mg/kg.

With `COP(=S)(OC)SCC(N)=O`, the LD50 was 925 mg/kg.

As to `O=NN(CCCl)C(O)=NC1C[C@H]2CC[C@@H]1C2` (stereo partly specified), the LD50 is 83 mg/kg.

For the molecule `Cc1oc(=O)oc1COC(=O)[C@@H]1N2C(=O)[C@@H](NC(=O)[C@H](N)c3ccccc3)[C@H]2SC1(C)C`, the LD50 is 10000 mg/kg.

With `ClCCOCCCl`, the LD50 was 75 mg/kg.

Take `CCCCCC(C=Cn1ccnc1)OCc1ccccc1` (stereo unspecified): the LD50 is 2550 mg/kg.

For `CCC12CCCN3CCc4c(n(c5cc(Br)ccc45)C(O)(C(=O)OC)C1)C32` (stereo unspecified), the LD50 was 1740 mg/kg.

For `FC(F)(F)c1nc2c(Cl)c(Cl)c(Br)cc2[nH]1`, the LD50 was 2.78 mg/kg.

Take `COc1c(OP(=S)(Oc2cnn(C)c(=O)c2OC)OC(C)C)cnn(C)c1=O`: the LD50 was 100 mg/kg.

Consider `COc1ccccc1C1C(Cl)C(=O)N1c1ccccc1C(=O)O` (stereo unspecified), for which the LD50 was 2400 mg/kg.

As for `CCSCCOP(=S)(OC)OC`, the LD50 is 75 mg/kg.

For the molecule `C=CC(C)=O`, the LD50 was 23.1 mg/kg.

As for `O=C(C=Cc1ccccc1O)OC(=O)C=Cc1ccccc1O`, the LD50 was 1510 mg/kg.

Regarding `FC(F)(F)c1ccc(Cl)c(Cl)c1`, the LD50 was 1150 mg/kg.

For `ClCC=CCCl`, the LD50 was 89 mg/kg.

For the molecule `FC1(F)C(Cl)=C(Cl)C(F)(F)C1(F)F`, the LD50 is 280 mg/kg.

Turning to `CN(C)c1cccc2nc3cccc([N+](=O)[O-])c3cc12`, the LD50 is 24 mg/kg.

For the molecule `O=S1(=O)OCC2C(CO1)C1(Cl)C(Cl)=C(Cl)C2(Cl)C1(Cl)Cl` (stereo unspecified), the LD50 was 18 mg/kg.

Consider `N#CC(CCN1CCC(C(=O)O)(c2ccccc2)CC1)(c1ccccc1)c1ccccc1`, for which the LD50 was 149 mg/kg.

Consider `Cc1onc2c(=O)n(-c3ccccc3)nc(-c3ccccc3)c12`, for which the LD50 is 1000 mg/kg.

Turning to `COc1cc2nc(N3CCN(C(=O)c4ccco4)CC3)nc(N)c2cc1OC`, the LD50 is 1950 mg/kg.

With `c1ccc2c(c1)CCCC2C1=NCCN1` (stereo unspecified), the LD50 is 785 mg/kg.

For the molecule `C=COCCSCC`, the LD50 is 4920 mg/kg.

For `N=C(N)NCCC[C@H](N)C(=O)O`, the LD50 was 12000 mg/kg.

On to `COc1cc2c(cc1OC)C(CCc1ccc(Cl)cc1)N(C)CC2` (stereo unspecified), for which the LD50 is 400 mg/kg.

On to `O=[N+]([O-])c1ccc(O/N=C/c2cc(Br)c(O)c(Br)c2)c([N+](=O)[O-])c1`, for which the LD50 was 1100 mg/kg.

Regarding `NC(N)=NC(N)=NCc1ccccc1`, the LD50 was 481 mg/kg.

With `CC(C)NC1Cc2ccccc2Cc2ccccc21` (stereo unspecified), the LD50 was 500 mg/kg.

On to `Fc1ccc(C(c2ccccc2)(c2ccccc2F)n2ccnc2)cc1` (stereo unspecified), for which the LD50 is 808 mg/kg.

In the case of `COc1ccc2c(c1OC)C(=O)O[C@@H]2[C@H]1c2c(cc3c(c2OC)OCO3)CCN1C`, the LD50 is 1520 mg/kg.

`CC(C)(CO)C(O)C#N` (stereo unspecified): the LD50 was 310 mg/kg.

Consider `CCOC(=O)OC(C)OC(=O)[C@@H]1N2C(=O)[C@@H](NC(=O)[C@H](N)c3ccccc3)[C@H]2SC1(C)C` (stereo partly specified), for which the LD50 was 10000 mg/kg.

Regarding `Cc1cccc(OC(C)C)c1N(C)C(=O)CCl`, the median lethal dose (LD50) was 950 mg/kg.

Regarding `CN1CCC(C=C2c3ccccc3CCc3ccccc32)C1` (stereo unspecified), the median lethal dose (LD50) is 303 mg/kg.

Take `C=CCSCC=C`: the LD50 was 2980 mg/kg.

With `NC(CCC(=O)O)C(=O)O` (racemic), the LD50 was 10000 mg/kg.

`CC(C)OC(=O)c1ccccc1`: the LD50 was 3730 mg/kg.

Regarding `Cc1ccnc(SCCC(F)=C(F)F)n1`, the LD50 was 844 mg/kg.

Consider `O=C[C@H](O)[C@@H](O)[C@H](O)[C@H](O)CO`, for which the LD50 is 25800 mg/kg.

As for `O=C(O)Cn1c(=O)n(Cc2ccc(Br)cc2F)c(=O)c2ccc(Cl)cc21`, the LD50 is 4250 mg/kg.

With `O=C1C=CC(=O)N1c1ccc(Cl)cc1`, the LD50 was 440 mg/kg.

As to `Cc1ccc(N=CN(C)Sc2ccc(Cl)cc2)c(C)c1`, the LD50 is 320 mg/kg.

For the molecule `CCCCc1c(C)nc(N(C)C)nc1O`, the LD50 is 2350 mg/kg.

`N#CC=CCCC#N`: the LD50 was 380 mg/kg.

For the molecule `CCN(CCO)CCn1c(Cc2ccccc2)nc2c1c(=O)n(C)c(=O)n2C`, the LD50 was 1140 mg/kg.

On to `CCC(C)(O)CCc1ccccc1` (stereo unspecified), for which the LD50 was 2950 mg/kg.

Turning to `CCCCCCC(C)I` (stereo unspecified), the LD50 was 8200 mg/kg.

Regarding `CN(C(O)=NC(C)(C)c1ccccc1)c1ccccc1`, the LD50 was 6130 mg/kg.

Turning to `CCC/C=C/C(OCC)OCC`, the LD50 was 860 mg/kg.

In the case of `CC(=O)c1ccc2c(c1)N(CCCN(C)C)c1ccccc1S2`, the LD50 is 400 mg/kg.

On to `CCCC/C=C\CCCCCCO`, for which the LD50 is 11700 mg/kg.

Take `N=C(S)NN=Nc1ccc(Cl)c(Cl)c1`: the LD50 is 1 mg/kg.

Take `CC(=O)OCC(C)c1ccccc1` (stereo unspecified): the LD50 was 4300 mg/kg.

As for `C[C@H](CS)C(=O)N1CCC[C@H]1C(=O)O`, the LD50 was 4240 mg/kg.

For the molecule `CCOP(=S)(OCC)Oc1ccc(N=C=S)cc1`, the LD50 was 251 mg/kg.

For orientation: LD50 means the dose expected to kill half of the subjects tested.
